{"source": "patent US11730717B1", "about": "“Melanin-inspired antimicrobial” (The Board of Regents for the Oklahoma Agricultural and …, priority 2020, dated 2023)", "key": {"S. aureus ATCC 25923": {"test_system": "S. aureus ATCC 25923", "assay": "MIC and MBC values (Table 2)", "format": "cell-based, Staphylococcus aureus"}, "B. subtilts ATCC 6633": {"test_system": "B. subtilts ATCC 6633", "assay": "MIC and MBC values (Table 2)", "format": "cell-based", "conditions": "Bacillus subtilis, ATCC6633"}, "MRSA": {"test_system": "MRSA", "assay": "Live/Dead staining and fluorescent microscopy", "format": "cell-based, Staphylococcus aureus", "method": "MRSA was grown overnight in 10 mL of LB broth, sub-cultured (5 mL of overnight culture added to 20 mL LB) and grown for 3 h. Bacterial culture (150 μL) were removed and transferred to a 1.5 mL centrifuge tube, which was treated with DMSO, EIPE-1 (0.01 mg/mL) or DBI (0.01 mg/mL) for 30 minutes. Equal amounts of the two dyes (SYTO 9 dye, 3.34 mM in DMSO), and propidium iodide (20 mM in DMSO) were mixed. Then 0.5 μL of the dye mixture was added to each tube of treated MRSA cultures. Wet mounts were prepared on glass slides for imaging live and dead MRSA, and Differential Interference Contrast (DIC) images were obtained using a Leica DMI600B fluorescent microscope. To determine the percentage of bacteria alive and dead, the total bacteria in each condition were counted in 20 fields of view and graphed using Prism 5.0.\nTo address MRSA viability in response to EIPE-1 treatment, a Live/Dead staining and microscopy was utilized. MRSA was treated with either DBI or EIPE-1 (16 μg/mL, 17 μM each) for 30 minutes (DMSO was used as a negative solvent control) and then stained with the dyes, Syto™ 9 and propidium iodide."}, "C. neoformans": {"test_system": "C. neoformans", "assay": "Scanning electron microscopy of treated fungal cells", "format": "cell-based, Cryptococcus neoformans", "conditions": "exposed at the minimum inhibitory concentration 1.749 μg/mL for 4, 8, 12 or 24 hrs", "method": "C. neoformans were suspended in RPMI with MOPs, 0.165M, at a concentration of 2.0×10^6 cells/mL. RPMI Mops media was added to a 2 mL collection tube in a volume of 100 μL. […] The tubes were incubated at 35° C. in a humid incubator for set time points of 4 hrs, 8 hrs, 12 hrs, or 24 hrs. Once removed, the tubes were placed in a centrifuge for 1 min. at 5000 rpm. Media was removed. The pellet was resuspended in 2.0% glutaraldehyde in 0.1 M cacodylate buffer at a volume of 1 mL for a minimum of 2 hrs.\nFixed C. neoformans cells were placed in a centrifuge for 1 min at 5000 rpm. Media was removed and C. neoformans was rinsed 3 times in a buffered wash at fixed intervals of 15 mins. Rinsed cells were resuspended in 1% OsO4 at room temperature for 1 hr in a 36-well plate with a cover slip. 1% OsO4 was removed. C. neoformans was rinsed 3 times in a buffered wash at fixed intervals of 15 mins. C. neoformans were dehydrated in ethanol at 50%, 70%, 90%, 95%, and 100% three times at fixed intervals of 15 mins. C. neoformans were wash two times with […] at a time interval of 5 mins. Cover slips were placed on a clear sheet for 12 hrs to dry. Cover slips were mounted on stubs with silver paint. The cover slips were covered in an Au—Pd coat. […]"}, "[1]": {"test_system": "Gram-positive bacteria, including E. faecalis and clinical isolates MRSA", "assay": "MIC summary for Gram-positive bacteria", "format": "cell-based", "method": "The minimum inhibitory concentrations (MICs) were determined by the broth microdilution method, following the guidelines of the Clinical and Laboratory Standards Institute (CLSI). Two-fold serial dilutions of EIPE-1, DBI, and Arm (starting with 1 mg/mL) were prepared in a 100 μL volume in 96-well microtiter plates. The dilution series included DMSO as a negative control. The bacterial culture […] was normalized to an OD600 of 0.2 and was then added to each well. Plates were incubated with shaking at 220 RPM at 37° C., and the MIC was determined based on the lowest concentration at which no visible growth of the bacterial isolate was observed.\nIn summary, a new antimicrobial, EIPE-1, was designed and synthesized, inspired by the black-brown pigment, Eumelanin. It was confirmed that the Eumelanin-inspired core DBI maintained its intrinsic antimicrobial activity, and that enhancement could be achieved with the incorporation of bactericidal moieties. […] Bactericidal effects of EIPE-1 against S. aureus were monitored and confirmed using the Live/Dead staining and fluorescent microscopy."}, "HeLa cells": {"test_system": "HeLa cells", "assay": "Cytotoxicity, LDH leakage assay", "format": "cell-based", "method": "HeLa cells were cultured in 96-well plates at 37° C. and 5% CO2 in Roswell Park Memorial Institute (RMPI) 1640 medium with 5% Fetal Bovine Serum (FBS). Once HeLa cells reached 95% confluency, the media was replaced with media containing various concentrations of EIPE-1, DBI or DMSO for 24 hours. Cell cytotoxicity was measured using the lactate dehydrogenase (LDH) leakage assay. Results were compared to maximum values of lysed cells in control wells and were graphed as percent relative cytotoxicity using Prism 5.0.\nHost cell cytotoxicity against HeLa cells was examined for both DBI and EIPE-1 (FIG. 2B). LDH release was examined after 24-hour exposure to varying concentrations of DBI, DMSO and EIPE-1. […] Thus, EIPE-1 is relatively safe to use with respect to eukaryotic cells."}}, "note": "Values joined by “and” are separate entries in the source; they are usually repeats but may differ in a detail not shown here. Equal entries are not always repeated. “Also recorded” adds a separate entry of the source. Where two headings read alike, the source gives them in different places.", "data": [{"compound": "COC(=O)c1cc2c(C#Cc3ccc(OCCC[N+](C)(C)C)cc3)c(OC)c(OC)c(C#Cc3ccc(OCCC[N+](C)(C)C)cc3)c2n1C", "note": "[EIPE-1, 3,3′-((((5,6-dimethoxy-2-(methoxycarbonyl)-1-methyl-1H-indole-4,7-diyl)bis(ethyne-2,1-diyl))bis(4,1-phenylene))bis(oxy))bis(N,N,N-trimethylpropan-1-aminium) iodide]", "values": [{"measurement": "MBC", "setting": "S. aureus ATCC 25923; Staphylococcus aureus, ATCC25923, repeated determinations", "value": 2, "unit": "µg/mL"}, {"measurement": "MIC", "setting": "S. aureus ATCC 25923; Staphylococcus aureus, ATCC25923, repeated determinations, read-out: MIC", "value": 2, "unit": "µg/mL"}, {"measurement": "MIC", "setting": "S. aureus ATCC 25923; repeated determinations", "value": 1.000, "unit": "µg/mL"}, {"measurement": "MBC", "setting": "B. subtilts ATCC 6633", "value": 1, "unit": "µg/mL"}, {"measurement": "MIC", "setting": "B. subtilts ATCC 6633", "value": 1, "unit": "µg/mL"}, {"measurement": "Live/Dead staining (green = intact membrane, red = damaged membrane)", "setting": "MRSA; 16 μg/mL, 17 μM, 30 minutes, Syto 9 and propidium iodide", "value": "only stained red"}, {"measurement": "time of exposure until biocidal activity occurred", "setting": "MRSA; MRSA", "value": "≤ 30", "unit": "min"}, {"measurement": "cell wall changes by SEM", "setting": "C. neoformans", "value": "structural changes to their cell wall; also recorded: changes to the cell wall shown at 4 hours"}, {"measurement": "MIC", "setting": "[1]", "value": "8 µg/mL to 16 µg/mL and 8.5 µM to 17 µM"}, {"measurement": "concentration at which cell cytotoxicity was detected", "setting": "HeLa cells", "value": "62.5 μg/mL and 66.8 μM"}, {"measurement": "maximal cytotoxicity (LDH release)", "setting": "HeLa cells; 24-hour exposure, concentrations above 62.5 μg/mL (66.8 μM)", "value": 50, "unit": "%"}, {"measurement": "cytotoxic concentration relative to the MIC against S. aureus", "setting": "HeLa cells; prolonged exposure (24 h)", "value": "4-5 fold"}]}]}
